# How the values were obtained:
# [1] = test system: M. para. isolated from resected tissue of CD patients; assay: in vitro test of seven antituberculosis drugs against M. para. (Bactec system); type: cell-based, Mycobacterium paratuberculosis; parameters: key to Status: R, resistant; S, sensitive; settings: for IC99.9: 99.9% M. para. cells inhibited or killed, Bactec system, combinations given as drug:drug, read-out: MIC99.9; for Status: M. para. resistant or sensitive to the drug
# Crohn's disease [2] = assay: comparison of age-matched MAP-positive and MAP-negative patients at 1 year (CDAI); type: in vivo, human; settings: patients unresponsive to antibiotics, MAP-negative group
# From the text: Another study was undertaken to compare age-matched MAP-positive and -negative patients utilizing ELISA analysis for serum antibodies to MAP. 10 MAP-positive and 10 MAP-negative patients were compared at 1 year, utilizing the CDAI score as a primary endpoint. The elimination of corticosteroids and the need for immunotherapy were considered secondary endpoints. The MAP-positive patients achieved complete remission in 9 out of the 10 cases, with entry CDAI score of 285 and exit score of 111. Steroids were eliminated in 8 of 10 patients, with 2 patients requiring low-dose steroids. In the MAP-negative group at 1 year, 6 of 10 patients were in complete remission, with an entry CDAI score of 308 and an exit score of 179. Of the responsive patients, 3 of 6 required additional immunotherapy, and 3 remained on antibiotics alone.
# Crohn's disease [3] = settings: cited from earlier work
Compound,IC99.9 [1] [µg/mL],Status [1],induction of remission (Crohn's disease [2]),"benefit of every 8-week administration (Crohn's disease [3]; over 550 patients with CD, preliminary trial results)",complications of the immunosuppresive effects (Crohn's disease [3]; patients treated for CD and rheumatoid arthritis)
"CC[C@H]1OC(=O)[C@H](C)[C@@H](O[C@H]2C[C@@](C)(OC)[C@@H](O)[C@H](C)O2)[C@H](C)[C@@H](O[C@@H]2O[C@H](C)C[C@H](N(C)C)[C@H]2O)[C@](C)(OC)C[C@@H](C)C(=O)[C@H](C)[C@@H](O)[C@]1(C)O [CLR, clarithromycin]",< 1.25,S,–,–,–
"CC[C@@H](CO)NCCN[C@@H](CC)CO [EMB, ethambutol]",< 3,S,–,–,–
"NNC(=O)c1ccncc1 [INH, isoniazid]",> 20,R,–,–,–
"NC[C@H]1O[C@H](O[C@H]2[C@H](O)[C@@H](O[C@H]3O[C@H](CO)[C@@H](O)[C@H](N)[C@H]3O)[C@H](N)C[C@@H]2N)[C@H](O)[C@@H](O)[C@@H]1O [KM, kanamycin]",< 3,R,–,–,–
"NC(=O)c1cnccn1 [PZA, pyrazinamide]",> 20,R,–,–,–
"CO[C@H]1/C=C/O[C@@]2(C)Oc3c(C)c(O)c4c(O)c(c(/C=N/N5CCN(C)CC5)c(O)c4c3C2=O)NC(=O)/C(C)=C\C=C\[C@H](C)[C@H](O)[C@@H](C)[C@@H](O)[C@@H](C)[C@H](OC(C)=O)[C@@H]1C [RIF, Rifampicin]",> 2.6,R,–,–,–
"[H]/N=C(/N)N[C@H]1[C@H](O)[C@@H](O)[C@H](O[C@@H]2O[C@@H](C)[C@](O)(C=O)[C@H]2O[C@@H]2O[C@@H](CO)[C@H](O)[C@@H](O)[C@@H]2NC)[C@@H](N/C(N)=N\[H])[C@@H]1O [ST, streptomycin]",> 3,R,–,–,–
infliximab: a monoclonal chimeric antibody to tumor necrosis factor α (TNF-α),–,–,induction of remission in all patients,maintenance of remission and improved quality of life,Documented cases of miliary tuberculosis

# Source: US20030228642A1, “Crohn's disease treatment and efficacy prediction methods” (priority 2002, published 2003)
